In US20150030583A1, “Methods of Treating Serosal Cancer” (SLOAN KETTERING INSTITUTE FOR CANCER RESEARCH, priority 2011, published 2015):
Structures can show the parent of a compound that is named as a salt. Where two headings read alike, the source gives them in different places. One block for each compound: values may come before it.

System: Ovcar3-GTL catenae
Assay: Ovcar3-GTL catena drug sensitivity / proliferation screen (alamarBlue, 384-well)
[1] = 24 h, read-out: IC50 (μM) Addition on Day 1, Ovcar3-GTL catenae; compound added one day after seeding (cells predominantly lacking a glycocalyx)
[2] = 144 h, read-out: IC50 (μM) Addition on Day 6, Ovcar3-GTL catenae; compound added six days after seeding (established or substantial glycocalyx)
[3] = increased resistance of catena cells with glycocalyx coat versus no coat
[4] = ratio of IC50 day 6 to day 1, Ovcar3-GTL catenae
[5] = read-out: IC50 (μM) No coat, pathway-specific inhibitors; catena cells without glycocalyx coat
[6] = read-out: IC50 (μM) With coat, pathway-specific inhibitors; catena cells with glycocalyx coat
[7] = read-out: IC50 (μM) With coat; pathway-specific inhibitors; catena cells with glycocalyx coat
[8] = read-out: IC50 (μM) Addition on Day 1; Ovcar3-GTL catenae; compound added one day after seeding (cells predominantly lacking a glycocalyx)
[9] = read-out: IC50 (μM) Addition on Day 6; Ovcar3-GTL catenae; compound added six days after seeding (established or substantial glycocalyx)

IC50 [5]: 0.78 µM | IC50 [6]: 13.4 µM
Structure (SMILES): C[C@@H](Oc1cc(-c2cnn(C3CCNCC3)c2)cnc1N)c1c(Cl)ccc(F)c1Cl [PF-02341066, Crizotinib]
IC50 [1]: 0.8 µM | IC50 [2]: 25 µM | Fold resistance [3]: 16 fold | Increase in Resistance Day6/Day 1 [4]: 31 fold

IC50 [5]: 3.14 µM | IC50 [6]: > 25 µM
Structure (SMILES): FC(F)c1nc2ccccc2n1-c1nc(N2CCOCC2)nc(N2CCOCC2)n1 [ZSTK474]
Fold resistance [3]: >8 fold

IC50 [5]: 3.14 µM | IC50 [6]: 3.14 µM
Structure (SMILES): Cc1[nH]c(/C=C2\C(=O)Nc3ccc(S(=O)(=O)Cc4c(Cl)cccc4Cl)cc32)c(C)c1C(=O)N1CCC[C@@H]1CN1CCCC1 [PHA-665752]
Fold resistance [3]: 1 fold

IC50 [5]: > 25 µM | IC50 [6]: > 25 µM
Structure (SMILES): Clc1ccc(Nc2nnc(Cc3ccncc3)c3ccccc23)cc1 [Vatalanib]

Structure (SMILES): CO[C@H]1C[C@@H]2CC[C@@H](C)[C@@](O)(O2)C(=O)C(=O)N2CCCC[C@H]2C(=O)O[C@H]([C@H](C)C[C@@H]2CC[C@@H](O)[C@H](OC)C2)CC(=O)[C@H](C)/C=C(\C)[C@@H](O)[C@@H](OC)C(=O)[C@H](C)C[C@H](C)/C=C/C=C/C=C/1C [rapamycin]
IC50 [1]: 12 µM | IC50 [2]: 25 µM | Increase in Resistance Day6/Day 1 [4]: 2 fold

Structure (SMILES): COc1cc([C@@H]2c3cc4c(cc3[C@@H](O[C@@H]3O[C@@H]5CO[C@@H](C)O[C@H]5[C@H](O)[C@H]3O)[C@H]3COC(=O)[C@H]23)OCO4)cc(OC)c1O [etoposide]
IC50 [1]: 0.4 µM | IC50 [2]: 50 µM | Increase in Resistance Day6/Day 1 [4]: 125 fold

Structure (SMILES): N#CC(=C(/N)Sc1ccccc1N)/C(C#N)=C(\N)Sc1ccccc1N [U0126]
IC50 (read-out: IC50 (μM) No coat): 13.4 µM | IC50 (read-out: IC50 (μM) With coat): > 25 µM

IC50 [5]: 3.14 µM | IC50 [6]: 13.4 µM
Structure (SMILES): CN1CCN(c2ccc3nc(-c4c(N)c5c(F)cccc5[nH]c4=O)[nH]c3c2)CC1 [CHIR-258 (Dovitinib), Dovitinib]
Fold resistance [3]: 4 fold

IC50 [5]: 3.14 µM | IC50 [7]: > 25 µM
Structure (SMILES): Cn1cc(-c2ccc3nnc(C(F)(F)c4ccc5ncccc5c4)n3n2)cn1 [JNJ-38877605]
Fold resistance [3]: >8 fold

Structure (SMILES): CO[C@@]12[C@H](COC(N)=O)C3=C(C(=O)C(C)=C(N)C3=O)N1C[C@@H]1N[C@@H]12 [mitomycin-C]
Increase in Resistance Day6/Day 1 [4]: 60 fold | IC50 [8]: 0.05 µM | IC50 [9]: 3 µM

Structure (SMILES): COc1ccc(CCN(C)CCCC(C#N)(c2ccc(OC)c(OC)c2)C(C)C)cc1OC (stereo not drawn) [verapamil]
IC50 (24 h, read-out: IC50 (μM) Addition on Day 1): > 100 µM | IC50 (144 h, read-out: IC50 (μM) Addition on Day 6): > 100 µM

IC50 [5]: > 25 µM | IC50 [6]: > 25 µM
Structure (SMILES): CC1(C)CNc2cc(NC(=O)c3cccnc3NCc3ccncc3)ccc21 [Motesanib Diphosphate (AMG-706), Motesanib Diphosphate]

Structure (SMILES): CC[C@@H]1C(=O)N(C)c2cnc(Nc3ccc(C(=O)NC4CCN(C)CC4)cc3OC)nc2N1C1CCCC1 [BI 2536]
IC50 (read-out: IC50 (μM) No coat): < 0.001 µM | IC50 (read-out: IC50 (μM) With coat): 13.4 µM

IC50 [5]: 0.01 µM | IC50 [7]: 0.05 µM
Structure (SMILES): Cc1[nH]c2ccccc2c1CCNCc1ccc(/C=C/C(=O)NO)cc1 [LBH-589 (Panobinostat), Panobinostat]
Fold resistance [3]: 4 fold

IC50 [5]: > 25 µM | IC50 [6]: > 25 µM
Structure (SMILES): Cc1ccc(Nc2nccc(N(C)c3ccc4c(C)n(C)nc4c3)n2)cc1S(N)(=O)=O [Pazopanib Hydrochloride]

IC50 [5]: > 25 µM | IC50 [6]: > 25 µM
Structure (SMILES): O=C(NOCC1CC1)c1ccc(F)c(F)c1Nc1ccc(I)cc1Cl [CI-1040 (PD184352)]

IC50 [5]: > 25 µM | IC50 [6]: > 25 µM
Structure (SMILES): C[C@@H](N)[C@H]1CC[C@H](C(=O)Nc2ccncc2)CC1 [Y27632]
IC50 [1]: > 100 µM | IC50 [2]: > 100 µM

IC50 [5]: 0.05 µM | IC50 [6]: > 25 µM
Structure (SMILES): Cn1c(=O)n(-c2ccc(C(C)(C)C#N)cc2)c2c3cc(-c4cnc5ccccc5c4)ccc3ncc21 [BEZ235 (NVP-BEZ235)]

IC50 [5]: 0.01 µM | IC50 [6]: < 0.2 µM | IC50 [7]: 0.2 µM
Structure (SMILES): O=C(/C=C/c1ccc(CN(CCO)CCc2c[nH]c3ccccc23)cc1)NO [LAQ824 (NVP-LAQ824, Dacinostat), Dacinostat]
Fold resistance [3]: 16 fold

IC50 [5]: 13.4 µM | IC50 [6]: 13.4 µM
Structure (SMILES): O=c1cc(-c2cccc3c2Sc2ccccc2S3)oc(N2CCOCC2)c1 [KU-55933]

IC50 [5]: > 25 µM | IC50 [7]: > 25 µM
Structure (SMILES): CCc1cc(Nc2nccc(-c3c(-c4ccc(OC)c(C(=O)Nc5c(F)cccc5F)c4)nc4ccccn34)n2)c(OC)cc1N1CCC(N2CCN(S(C)(=O)=O)CC2)CC1 [GSK1904529A]

Structure (SMILES): O=c1cc(N2CCOCC2)oc2c(-c3ccccc3)cccc12 [LY294002]
IC50 [1]: 25 µM | IC50 [2]: > 100 µM | Increase in Resistance Day6/Day 1 [4]: 4 fold

IC50 [5]: 3.14 µM | IC50 [6]: 13.4 µM
Structure (SMILES): CN(C)C/C=C/C(=O)Nc1cc2c(Nc3ccc(F)c(Cl)c3)ncnc2cc1O[C@H]1CCOC1 [BIBW2992 (Tovok)]
Fold resistance [3]: 4 fold

IC50 [5]: > 25 µM | IC50 [6]: > 25 µM
Structure (SMILES): Nc1cccc2c1CN(C1CCC(=O)NC1=O)C2=O (stereo not drawn) [Lenalidomide]

Structure (SMILES): O=C(NOC[C@H](O)CO)c1ccc(F)c(F)c1Nc1ccc(I)cc1F [PD0325901]
IC50 (read-out: IC50 (μM) No coat): 0.2 µM | IC50 (read-out: IC50 (μM) With coat): > 25 µM

Structure (SMILES): C=CCNC1=C2C[C@@H](C)C[C@H](OC)[C@H](O)[C@@H](C)/C=C(\C)[C@H](OC(N)=O)[C@@H](OC)/C=C\C=C(/C)C(=O)NC(=CC1=O)C2=O [17AAG]
Increase in Resistance Day6/Day 1 [4]: 33 fold | IC50 [8]: 0.012 µM | IC50 [9]: 0.4 µM

Structure (SMILES): C[C@H]1CCC/C=C/[C@@H]2C[C@H](O)C[C@H]2[C@H](O)/C=C/C(=O)O1 [brefeldin A]
toxicity to catena cells with a glycocalyx coat (LOPAC 1280 HTS; compound at 0.2 μM): exert toxicity

IC50 [5]: 13.4 µM | IC50 [6]: 13.4 µM
Structure (SMILES): CNC(=O)c1cc(Oc2ccc(NC(=O)Nc3ccc(Cl)c(C(F)(F)F)c3)cc2)ccn1 [Sorafenib Tosylate (Bay 43-9006), Sorafenib Tosylate]

IC50 [5]: 0.05 µM | IC50 [6]: 13.4 µM
Structure (SMILES): COc1cc2c(Oc3ccc(NC(=O)C4(C(=O)Nc5ccc(F)cc5)CC4)cc3F)ccnc2cc1OCCCN1CCOCC1 [XL880 (GSK1363089EXEL-2880)]

IC50 [5]: 13.4 µM | IC50 [6]: 13.4 µM
Structure (SMILES): COc1cc2c(N3CCN(C(=O)Nc4ccc(OC(C)C)cc4)CC3)ncnc2cc1OCCCN1CCCCC1 [Tandutinib (MLN518), Tandutinib]

Structure (SMILES): C/C(=C\c1csc(C)n1)[C@@H]1C[C@@H]2O[C@]2(C)CCC[C@H](C)[C@H](O)[C@@H](C)C(=O)C(C)(C)[C@@H](O)CC(=O)O1 [Epo-B]
Increase in Resistance Day6/Day 1 [4]: 4,000 fold | IC50 [8]: 0.025 µM | IC50 [9]: > 100 µM

IC50 [5]: 13.4 µM | IC50 [6]: 13.4 µM
Structure (SMILES): CC(=O)c1c(C)c2cnc(Nc3ccc(N4CCNCC4)cn3)nc2n(C2CCCC2)c1=O [PD-0332991]
IC50 [1]: 0.6 µM | IC50 [2]: 50 µM | Increase in Resistance Day6/Day 1 [4]: 83 fold

IC50 [5]: 13.4 µM | IC50 [6]: > 25 µM
Structure (SMILES): COc1cc2nccc(Oc3ccc(NC(=O)Nc4cc(C)on4)c(Cl)c3)c2cc1OC [AV-951 (Tivozanib), Tivozanib]

IC50 [5]: 3.14 µM | IC50 [6]: 13.4 µM
Structure (SMILES): CCN(CC)CCNC(=O)c1c(C)[nH]c(/C=C2\C(=O)Nc3ccc(F)cc32)c1C [Sunitinib Malate (Sutent), Sunitinib Malate]
Fold resistance [3]: 4 fold

IC50 [5]: 3.14 µM | IC50 [6]: 13.4 µM
Structure (SMILES): CCCCCCCCCCCCCCCCCCOP(=O)([O-])OC1CC[N+](C)(C)CC1 [Perifosine]
Fold resistance [3]: 4 fold

IC50 [5]: 3.14 µM | IC50 [6]: 13.4 µM
Structure (SMILES): NC1(c2ccc(-c3nc4ccn5c(=O)[nH]nc5c4cc3-c3ccccc3)cc2)CCC1 [MK-2206]
Fold resistance [3]: 4 fold

IC50 [5]: 0.05 µM | IC50 [6]: > 25 µM
Structure (SMILES): Cc1cc(Nc2cc(N3CCN(C)CC3)nc(Sc3ccc(NC(=O)C4CC4)cc3)n2)[nH]n1 [VX-680 (Tozasertib), Tozasertib]
